Values after ≈ are worked out from the molar mass of the structure shown. Like-named read-outs stand apart in the source and are kept apart here. Where a SMILES comes first, the peptide text is derived from it. [ ]: non-standard residue; d: D form.

The source of these data is publication PMC8621208, “Antiseptic 9-Meric Peptide with Potency against Carbapenem-Resistant Acinetobacter baumannii Infection” (International Journal of Molecular Sciences, 2021).

The subject of data set [1] is E. coli. Briefly: MIC, broth dilution. Type of data set: cell-based, Escherichia coli KCTC 1682. The settings on record: E. coli; 16 h, MH media; read-out: Minimal Inhibitory Concentration (MIC). The source says: (§1) Escherichia coli KCTC 1682 was obtained from the Korean Collection for Type Cultures (KCTC) (Jeongeup-si, Korea), Acinetobacter baumannii KCCM 40203, Pseudomonas aeruginosa KCCM 11328 from the Korea Culture Center of Microorganisms (KCCM) (Seoul, Korea). Klebsiella pneumoniae NCCP 16054 were obtained from the National Culture Collection for Pathogens (NCCP) (Osong, Korea). Additionally, two carbapenem-resistant E. coli (CREC E1 and E2), 11 carbapenem-resistant A. baumannii (CRAB C0–C10) and two carbapenem-resistant K. pneumoniae (CRKP K1 and K2) were isolated from the patients, who presented symptoms and signs of infection at Korea University Anam Hospital (Seoul, Korea) (IRB registration no. 2020AN0157, 4 March 2021). CRAB C0–C10 have the OXA-23 gene with carbapenem-resistance.
(§2) The minimum inhibitory concentrations (MIC) were determined using broth dilution method. Briefly, all the mentioned bacterial strains were grown overnight at 37 °C by Muller–Hinton (MH) media. […] After 16 h incubation, the bacterial growth was read at 600 nm using a SpectraMAX microplate reader (Molecular Devices, San Jose, CA, USA).
On the technique in general: Dilution methods test growth across graded concentrations, often in twofold steps.

The next data set has as its system A. baumannii. Briefly: MIC, broth dilution. In kind it is cell-based, Acinetobacter baumannii KCCM 40203. The note with it: 16 h, MH media, read-out: Minimal Inhibitory Concentration (MIC).
Description: as §1, §2

The test system of another data set is CREC E1. Briefly: MIC, broth dilution. In kind it is cell-based, carbapenem-resistant E. coli. The settings on record: read-out: Minimal Inhibitory Concentration (MIC).
Description: as §1, §2

The test system of the next data set is CREC E2. Briefly: MIC, broth dilution. Type of data set: cell-based, carbapenem-resistant E. coli. The settings on record: read-out: Minimal Inhibitory Concentration (MIC).
Description: as §1, §2

Data set [2] has as its system CRAB C0. The data set is described as follows: MIC, broth dilution. Type of data set: cell-based, carbapenem-resistant A. baumannii. The note with it: read-out: Minimal Inhibitory Concentration (MIC).
Description: as §1, §2

Another data set concerns CRAB C10. The data set is described as follows: MIC, broth dilution. In kind it is cell-based, carbapenem-resistant A. baumannii. The note with it: read-out: Minimal Inhibitory Concentration (MIC).
Description: as §1, §2

In the next data set the test system is CRAB C2. Briefly: MIC, broth dilution. Type of data set: cell-based, carbapenem-resistant A. baumannii. The note with it: read-out: Minimal Inhibitory Concentration (MIC).
Description: as §1, §2

A further data set relates to CRAB C3. Briefly: MIC, broth dilution. In kind it is cell-based, carbapenem-resistant A. baumannii. The note with it: read-out: Minimal Inhibitory Concentration (MIC).
Description: as §1, §2

In another data set the test system is CRAB C4. Briefly: MIC, broth dilution. In kind it is cell-based, carbapenem-resistant A. baumannii. The note with it: read-out: Minimal Inhibitory Concentration (MIC).
Description: as §1, §2

The subject of another data set is CRAB C5. The data set is described as follows: MIC, broth dilution. Type of data set: cell-based, carbapenem-resistant A. baumannii. The note with it: read-out: Minimal Inhibitory Concentration (MIC).
Description: as §1, §2

The subject of a further data set is CRAB C6. The data set is described as follows: MIC, broth dilution. Type of data set: cell-based, carbapenem-resistant A. baumannii. The settings on record: read-out: Minimal Inhibitory Concentration (MIC).
Description: as §1, §2

Another data set deals with CRAB C7. The data set is described as follows: MIC, broth dilution. Type of data set: cell-based, carbapenem-resistant A. baumannii. The note with it: read-out: Minimal Inhibitory Concentration (MIC).
Description: as §1, §2

In another data set the test system is CRAB C9. Briefly: MIC, broth dilution. The settings on record: read-out: Minimal Inhibitory Concentration (MIC). In kind it is cell-based, carbapenem-resistant A. baumannii.
Description: as §1, §2

For another data set, the system named is CRAB C1. Briefly: microbe, parasite or virus in culture. The settings on record: CRAB C1.
Description: as §1, §2

The test system of another data set is CRAB C8. Briefly: microbe, parasite or virus in culture. The note with it: CRAB C8.
Description: as §1, §2

Another data set deals with K. pneumoniae. The data set is described as follows: microbe, parasite or virus in culture. The note with it: K. pneumoniae; 16 h, MH media.
Description: as §1, §2

For another data set, the system named is CRKP K1. Briefly: MIC, broth dilution. Type of data set: cell-based, carbapenem-resistant K. pneumoniae. The note with it: read-out: Minimal Inhibitory Concentration (MIC).
Description: as §1, §2

The next data set deals with CRKP K2. Briefly: MIC, broth dilution. Type of data set: cell-based, carbapenem-resistant K. pneumoniae. The note with it: read-out: Minimal Inhibitory Concentration (MIC).
Description: as §1, §2

Data set [3] concerns sheep red blood cells (sRBC). The data set is described as follows: Hemolytic assay. In kind it is cell-based. The settings on record: 100 μM. The procedure:
The peptide-induced toxicity was determined by hemolytic against Sheep red blood cells (sRBC). Briefly, Fresh sRBC were washed at least three times with phosphate-buffered saline (PBS) and the debris were removed by centrifugation (1000× g for 5 min, 4 °C). All the peptides including melittin control (0.2–100 μM) and positive control (1% (v/v) triton X-100) were incubated with 4% (v/v) sRBC for 1 h at 37 °C followed by centrifugation at 1000× g for 5 min. The supernatant was measured at 405 nm using a microplate reader.

The subject of another data set is CRAB C0 outer membrane. The data set is described as follows: Outer membrane permeability, NPN uptake. In kind it is cell-based, carbapenem-resistant A. baumannii. The procedure: The effect of peptides on the disturbance of CRAB C0 outer membrane was analyzed using 1-N-phenylnaphthylamine (NPN, Sigma-Aldrich, St. Louis, MO, USA) uptake assay, as previously described. Briefly, CRAB C0 cell suspensions were mixed with NPN (1 mM) and the background fluorescence was recorded for subtraction (excitation λ = 350 nm, emission λ = 420 nm) using RF-6000PC fluorescent spectrophotometer (Shimadzu Scientific Instruments, Kyoto, Japan). Changes in the NPN fluorescence were recorded after addition of different concentrations of peptides and values are expressed as—fluorescence intensity (A.U.).

The test system of data set [4] is E. coli. Type of data set: cell-based, Escherichia coli. The settings on record: peptide pre-incubated 6 h at 37 °C. The procedure:
(§3) All the peptides at their MICs were pre-incubated with proteolytic enzymes such as trypsin and α-chymotrypsin (10,000:1; peptide: enzyme ratio) for 6 h at 37 °C. Then, 100 μL of peptide-protease cocktail was added to the 100 µL bacterial suspension (E. coli, A. baumannii and CRAB C0, 2 × 10^5 CFU/mL) and further incubated for 16 h at 37 °C. Bacterial suspension without peptide and protease served as negative control. The analysis was repeated at three times using independent experiments, and the degree of bacterial growth was measured at 600 nm using a microplate reader.

Data set [5] deals with CRAB C0. In kind it is cell-based, carbapenem-resistant A. baumannii. The note with it: peptide pre-incubated 6 h at 37 °C. The procedure:
as §3

With `CC[C@@H](C)[C@@H](NC(=O)[C@@H](Cc1c[nH]c2ccccc12)NC(=O)[C@@H](CCCNC(=N)N)NC(=O)[C@H](N)CCCNC(=N)N)C(=O)N[C@H](C)C(=O)N[C@H](CC(C)C)C(=O)N[C@H](Cc1c[nH]c2ccccc12)C(=O)N[C@H](CC(C)C)C(=O)N[C@H](CCCNC(=N)N)C(N)=O` [R-Pro9-3D, rrwialwlr-NH2] (H-[dR][dR][dW][dI][dA][dL][dW][dL][dR]-NH2), the MIC is 8 µM (≈ 10.1 µg/mL) in the data set with E. coli [1]; 4 µM (≈ 5.07 µg/mL) with A. baumannii; 8 µM (≈ 10.1 µg/mL) with CREC E1; 8 µM (≈ 10.1 µg/mL) in the data set with CREC E2; 4 µM (≈ 5.07 µg/mL) in the data set with CRAB C0 [2]; 4 µM (≈ 5.07 µg/mL) in the data set on CRAB C10. For the same compound, the MIC in the data set with CRAB C2 was 4 µM (≈ 5.07 µg/mL); in the data set on CRAB C3, 8 µM (≈ 10.1 µg/mL); in the data set on CRAB C4 it was 4 µM (≈ 5.07 µg/mL); in the data set with CRAB C5 it was 4 µM (≈ 5.07 µg/mL); with CRAB C6, 4 µM (≈ 5.07 µg/mL); in the data set with CRAB C7, 4 µM (≈ 5.07 µg/mL). The MIC is 4 µM (≈ 5.07 µg/mL) in the data set with CRAB C9, 16 µM (≈ 20.3 µg/mL) in the data set on CRKP K1 and 8 µM (≈ 10.1 µg/mL) in the data set on CRKP K2. Also, the “Minimal Inhibitory Concentration (MIC)” value in the data set with CRAB C1 was 8 µM; in the data set with CRAB C8, 4 µM; in the data set on K. pneumoniae, 8 µM; in the data set on E. coli [4] (E. coli + Trypsin) it was 8 µM; in the data set on E. coli [4] (E. coli + α-Chymotrypsin), 8 µM; in the data set with CRAB C0 [5] (CRAB C0 + Trypsin), 4 µM. Further, the “Minimal Inhibitory Concentration (MIC)” value in the data set on CRAB C0 [5] (CRAB C0 + α-Chymotrypsin) was 4 µM. The Hemolytic activity in data set [3] is 1.2%. Besides, the “NPN uptake (outer membrane permeabilization)” value in the data set with CRAB C0 outer membrane is listed as “greater NPN uptake than their L-form peptides”.
